Results as given in article PMC3756062, “Identification of Putative Steroid Receptor Antagonists in Bottled Water: Combining Bioassays and High-Resolution Mass Spectrometry” (PLoS ONE, 2013).

Key:
[1] = target: T1, human androgen receptor (Homo sapiens, UniProt P10275); experiment: Yeast Antiandrogen Screen (YAAS), reporter gene assay; assay type: cell-based; details: coincubated with 2.5 nM testosterone; for IC50: authentic standards 300 nM to 1 mM in ethanol, 24 h, three experiments, four-parameter logistic function, read-out: IC50, antiandrogenic in the YAAS
T1 construct: expressed in transfected cells
T1 sequence (P10275 1-920): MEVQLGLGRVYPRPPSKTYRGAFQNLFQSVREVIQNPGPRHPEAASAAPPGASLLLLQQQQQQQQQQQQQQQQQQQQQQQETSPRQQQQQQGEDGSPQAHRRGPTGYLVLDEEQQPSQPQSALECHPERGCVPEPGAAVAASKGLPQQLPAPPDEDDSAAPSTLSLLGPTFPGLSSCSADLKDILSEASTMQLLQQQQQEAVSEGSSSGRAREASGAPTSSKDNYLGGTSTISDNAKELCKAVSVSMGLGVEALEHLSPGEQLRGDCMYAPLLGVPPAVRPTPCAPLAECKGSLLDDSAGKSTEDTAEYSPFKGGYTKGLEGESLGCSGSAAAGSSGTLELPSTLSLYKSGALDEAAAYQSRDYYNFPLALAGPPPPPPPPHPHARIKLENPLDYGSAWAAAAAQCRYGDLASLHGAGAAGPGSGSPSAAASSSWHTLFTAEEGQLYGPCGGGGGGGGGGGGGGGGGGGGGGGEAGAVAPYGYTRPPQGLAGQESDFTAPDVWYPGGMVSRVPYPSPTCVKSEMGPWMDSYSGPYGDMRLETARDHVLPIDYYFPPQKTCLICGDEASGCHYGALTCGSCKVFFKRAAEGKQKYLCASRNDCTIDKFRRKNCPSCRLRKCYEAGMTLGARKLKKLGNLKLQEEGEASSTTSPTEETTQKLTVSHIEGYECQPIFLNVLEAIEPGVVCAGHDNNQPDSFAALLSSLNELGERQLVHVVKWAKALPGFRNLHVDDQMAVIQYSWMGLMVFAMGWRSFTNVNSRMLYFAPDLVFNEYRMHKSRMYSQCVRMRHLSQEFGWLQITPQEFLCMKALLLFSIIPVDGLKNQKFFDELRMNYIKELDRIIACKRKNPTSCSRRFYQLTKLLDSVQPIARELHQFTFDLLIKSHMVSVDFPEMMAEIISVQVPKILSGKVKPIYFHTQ
Procedure: (§1) The antiestrogenic and antiandrogenic activity of bottled water extracts was evaluated in reporter gene assays for human estrogen receptor alpha (Yeast Antiestrogen Screen, YAES) and human androgen receptor (Yeast Antiandrogen Screen, YAAS). To detect antagonists, Yeast Estrogen Screen and Yeast Androgen Screen were modified to analyze samples in the presence of the endogenous ligand of each receptor (17β-estradiol, testosterone). Receptor antagonists present in the sample cause a displacement of the endogenous ligand resulting in a decreased reporter gene signal.
(§2) The general assay procedures have been described previously, [24]. Briefly, SPE extracts were diluted 480 fold in assay medium and coincubated with 30 pM 17β-estradiol (YAES) or 2.5 nM testosterone (YAAS) dissolved in ethanol. Negative controls, solvent controls (ethanol and DMSO) with and without endogenous ligand, and positive controls (ligand coincubated with a known receptor antagonist, YAES: 80 µM hydroxytamoxifen, YAAS: 50 µM flutamide) were included in each experiment. The maximum solvent concentration was 0.4% v/v in all cases. Samples were analyzed in eight replicates, controls in 8–48 replicates. After 24 hours incubation at 30°C turbidity was read to assess cytotoxicity and β-galactosidase activity was determined. Samples from three extractions were tested in three independent YAES and YAAS experiments each.
(§3) Inhibition data is reported as means of three SPE extracts per sample analyzed in three experiments (with eight replicates each) resulting in a sample size of 63–72. The reported antagonistic activity corresponds to a sample volume equivalent to 3.75 mL bottled water.
Chemicals with best matching fragmentation and plausible structure (DEHM, DOM, DEHF, DOF) were purchased as authentic standards. Their antiestrogenic and antiandrogenic activity was evaluated in the bioassays (three experiments) as described above in concentrations ranging from 300 nM to 1 mM (in ethanol).

[2] = target: T2, human estrogen receptor alpha (Homo sapiens, UniProt P03372); experiment: Yeast Antiestrogen Screen (YAES), reporter gene assay; assay type: cell-based; details: coincubated with 30 pM 17β-estradiol; for IC50: authentic standards 300 nM to 1 mM in ethanol, 24 h, three experiments, four-parameter logistic function, read-out: IC50, antiestrogenic in the YAES
T2 construct: expressed in transfected cells
T2 sequence (P03372 1-595): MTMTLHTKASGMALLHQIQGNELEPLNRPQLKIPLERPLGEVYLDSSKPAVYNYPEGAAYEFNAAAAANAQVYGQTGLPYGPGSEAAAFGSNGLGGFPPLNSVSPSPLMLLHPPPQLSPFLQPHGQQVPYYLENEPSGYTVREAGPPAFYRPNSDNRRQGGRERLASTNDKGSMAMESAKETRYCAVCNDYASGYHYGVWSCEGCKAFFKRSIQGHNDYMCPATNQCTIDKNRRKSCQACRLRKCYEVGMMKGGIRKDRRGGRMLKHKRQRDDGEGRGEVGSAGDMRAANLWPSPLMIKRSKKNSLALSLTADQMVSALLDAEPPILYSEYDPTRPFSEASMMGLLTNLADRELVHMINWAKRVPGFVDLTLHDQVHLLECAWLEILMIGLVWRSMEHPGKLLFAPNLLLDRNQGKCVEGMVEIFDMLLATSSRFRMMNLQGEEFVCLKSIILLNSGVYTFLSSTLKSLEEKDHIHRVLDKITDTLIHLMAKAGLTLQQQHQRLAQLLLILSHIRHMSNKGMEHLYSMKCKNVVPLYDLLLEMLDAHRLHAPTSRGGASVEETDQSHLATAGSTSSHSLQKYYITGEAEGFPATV
Procedure: as §1, §2, §3
Their antiestrogenic and antiandrogenic activity was evaluated in the bioassays (three experiments) as described above in concentrations ranging from 300 nM to 1 mM (in ethanol).

| antiandrogenic activity in the YAAS (result in words) [1] | IC50 [2] | antiestrogenic activity in the YAES (result in words) [2] | IC50 [1] | Compound |
| --- | --- | --- | --- | --- |
| inactive |  |  |  | CCCCC(CC)COC(=O)/C=C/C(=O)OCC(CC)CCCC (stereo not shown) [DEHF, 2-Butenedioic acid (2E)-, 1,4-bis(2-ethylhexyl) ester] |
| inactive |  |  |  | CCCCC(CC)COC(=O)/C=C\C(=O)OCC(CC)CCCC (stereo not shown) [DEHM, 2-Butenedioic acid (2Z)-, 1,4-bis(2-ethylhexyl) ester] |
| partially | 35.4 µM | partially | 15.8 µM | CCCCCCCCOC(=O)/C=C/C(=O)OCCCCCCCC [DOF, 2-Butenedioic acid (2E)-, 1,4-dioctyl ester] |
| at high concentrations | 107 µM | at high concentrations | 245 µM | CCCCCCCCOC(=O)/C=C\C(=O)OCCCCCCCC [DOM, 2-Butenedioic acid (2Z)-, 1,4-dioctyl ester] |
